These results are taken from patent US12606568B2, “SMARCA degraders and uses thereof” (Kymera Therapeutics, Inc., priority 2020, dated 2026).

Where only a bound is given, the exact number is not on record here.

Common to all, as to assay type: cell-based
Assay [1] deals with T1, SMARCA2 (Homo sapiens, UniProt P51531). Nature of the assay: SMARCA2 Western blot MV4-11 degradation. Also noted: SMARCA2 and SMARCA4 protein degradation in MV4-11 cells; endogenous in cells; host or cells: MV4-11. Particulars: for Dmax: MV4-11, MV4-11 cells, read-out: SMARCA2 MSD MV411 degradation 24 h: average Dmax %; for Dmax / DC50: 24 h; for DC50 / SMARCA2 MSD MV411 degradation 24 h: average Dmax %: MV4-11 cells; for DC50: read-out: SMARCA2 MSD MV411 degradation 24 h: Mean external-Abs DC50. How it is done: (§1) Example 54. SMARCA2 and SMARCA 4 Western Blot MV4-11 Degradation
T1 sequence (P51531 whole entry): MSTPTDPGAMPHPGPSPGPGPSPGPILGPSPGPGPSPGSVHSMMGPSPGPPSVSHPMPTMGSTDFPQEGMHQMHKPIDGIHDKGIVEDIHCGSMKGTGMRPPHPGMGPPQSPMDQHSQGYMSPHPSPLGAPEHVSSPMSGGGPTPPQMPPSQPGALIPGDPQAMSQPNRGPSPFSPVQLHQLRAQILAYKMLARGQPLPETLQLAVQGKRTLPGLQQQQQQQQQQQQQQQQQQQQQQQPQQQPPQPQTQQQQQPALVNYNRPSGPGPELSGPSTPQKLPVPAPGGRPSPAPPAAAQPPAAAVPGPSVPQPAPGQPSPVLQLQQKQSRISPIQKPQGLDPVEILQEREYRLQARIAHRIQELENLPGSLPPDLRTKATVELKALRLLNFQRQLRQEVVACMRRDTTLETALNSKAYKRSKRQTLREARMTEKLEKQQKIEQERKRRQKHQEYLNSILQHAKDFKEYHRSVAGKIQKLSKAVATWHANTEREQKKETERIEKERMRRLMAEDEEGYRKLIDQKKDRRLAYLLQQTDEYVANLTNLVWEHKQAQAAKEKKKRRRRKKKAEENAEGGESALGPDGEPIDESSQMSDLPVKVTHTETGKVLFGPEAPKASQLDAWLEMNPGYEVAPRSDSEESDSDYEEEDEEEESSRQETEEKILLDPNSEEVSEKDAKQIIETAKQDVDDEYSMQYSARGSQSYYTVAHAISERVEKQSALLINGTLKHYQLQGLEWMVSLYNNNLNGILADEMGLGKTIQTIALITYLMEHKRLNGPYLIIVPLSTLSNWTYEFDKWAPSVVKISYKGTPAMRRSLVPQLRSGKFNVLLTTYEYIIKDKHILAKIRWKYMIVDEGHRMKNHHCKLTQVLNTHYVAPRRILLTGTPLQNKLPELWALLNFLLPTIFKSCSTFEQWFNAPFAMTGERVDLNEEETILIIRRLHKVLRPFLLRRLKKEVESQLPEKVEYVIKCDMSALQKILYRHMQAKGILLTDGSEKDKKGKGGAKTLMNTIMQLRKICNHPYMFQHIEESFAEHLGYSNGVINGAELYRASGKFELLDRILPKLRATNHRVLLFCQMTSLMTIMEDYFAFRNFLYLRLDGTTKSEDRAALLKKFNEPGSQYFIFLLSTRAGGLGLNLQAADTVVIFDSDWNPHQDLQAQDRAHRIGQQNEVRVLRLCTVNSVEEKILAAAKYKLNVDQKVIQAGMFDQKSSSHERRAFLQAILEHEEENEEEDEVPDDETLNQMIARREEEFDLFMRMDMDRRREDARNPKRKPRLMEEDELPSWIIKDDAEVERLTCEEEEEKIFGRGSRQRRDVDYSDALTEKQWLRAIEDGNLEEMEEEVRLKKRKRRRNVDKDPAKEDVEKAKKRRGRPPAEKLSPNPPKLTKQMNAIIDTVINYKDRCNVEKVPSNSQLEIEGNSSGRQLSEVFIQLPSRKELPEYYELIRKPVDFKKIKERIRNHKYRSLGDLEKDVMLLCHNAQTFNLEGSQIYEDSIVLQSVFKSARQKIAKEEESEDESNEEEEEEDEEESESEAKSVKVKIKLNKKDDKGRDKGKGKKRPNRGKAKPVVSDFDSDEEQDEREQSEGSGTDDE
(§2) Cells were seeded into 6-well plates (MV4-11: 4×10^6 cells/well/1 ml) and 1 ml of 2× compound solution was added into the well to make the final concentration and the plates were mixed well and incubated for 24 hours (No cytotoxicity was observed). The cell were collected with media and spun at 3000 rpm for 5 minutes. The supernatant was aspirated and the well and the cells were washed with cold PBS once and combined for centrifugation again; the supernatant aspirated again. 200 ul pre-chilled RIPA lysis buffer (Boston BioProducts BP-115D) with protease/phosphatase inhibitor (Roche 05892791001/Roche 04906837001) was directly added into the tube to lyze the cells for 20 minutes on ice. The cell lysate were collected into EP tubes and spun at 13000 rpm for 20 minutes and 72 ul supernatant was transferred to a fresh EP tube containing 18 ul of 5× loading buffer (Beyotime Bio P0015) to make the loading samples. The samples were heated to 100° C. for 10 minutes and cooled to RT and microcentrifuged. 20 ul of samples were loaded onto SDS-PAGE gel (Novex, WG1402BOX) and the gel was run at 80 V for 20 minutes and 120 V for 1.5 hours. The samples were electrotransfer to a NC membrane using wet-transfer method with 250 mA for 2.5 hours. The membrane was blocked with LICOR blocking buffer (LI-COR, 927-50000) for 1 hour. The membrane was washed three times with TBST (CST #9997S), 5 minutes each. Incubation was performed with primary antibody prepared in blocking buffer with 0.1% Tween-20 (Solarbio, P8220) at 4° C. overnight (Anti-SMARCA2/BRM antibody (ab15597) 1:500; Anti-BRG1 antibody [EPR3912] (ab108318) 1:1000; Rabbit anti-Baf180 antibody [EPR15860] (Abcam, ab196022) 1:1000; mouse anti-beta-Actin (8H10D10) (CST #3700) 1:10000). The membrane was washed three times with TBST, 5 minutes each. Incubation with secondary antibody was performed for 1 hour at RT (anti-rabbit IgG (Licor, 926-32211) 1:5000; anti-mouse IgG (LI-COR, 926-68070) 1:5000). The membrane was washed three times with TBST, 5 minutes each and lastly the LiCOR was read.
(§3) The letter codes for SMARCA degradation potency (DC50) include: A (<100 nM), B (100-500 nM), C (501-1000 nM), and D (>1000 nM). The letter codes for the percentage of SMARCA degradation after 24 hours (Dmax %) include: A (>90% degradation), B (>70-90% degradation), C (50-70% degradation), and D (<50% degradation).

In the next assay the target is T2, SMARCA4 (Homo sapiens, UniProt P51532).
T2 construct: SMARCA2 and SMARCA4 protein degradation in MV4-11 cells; endogenous in cells; host or cells: MV4-11
T2 sequence (P51532 whole entry): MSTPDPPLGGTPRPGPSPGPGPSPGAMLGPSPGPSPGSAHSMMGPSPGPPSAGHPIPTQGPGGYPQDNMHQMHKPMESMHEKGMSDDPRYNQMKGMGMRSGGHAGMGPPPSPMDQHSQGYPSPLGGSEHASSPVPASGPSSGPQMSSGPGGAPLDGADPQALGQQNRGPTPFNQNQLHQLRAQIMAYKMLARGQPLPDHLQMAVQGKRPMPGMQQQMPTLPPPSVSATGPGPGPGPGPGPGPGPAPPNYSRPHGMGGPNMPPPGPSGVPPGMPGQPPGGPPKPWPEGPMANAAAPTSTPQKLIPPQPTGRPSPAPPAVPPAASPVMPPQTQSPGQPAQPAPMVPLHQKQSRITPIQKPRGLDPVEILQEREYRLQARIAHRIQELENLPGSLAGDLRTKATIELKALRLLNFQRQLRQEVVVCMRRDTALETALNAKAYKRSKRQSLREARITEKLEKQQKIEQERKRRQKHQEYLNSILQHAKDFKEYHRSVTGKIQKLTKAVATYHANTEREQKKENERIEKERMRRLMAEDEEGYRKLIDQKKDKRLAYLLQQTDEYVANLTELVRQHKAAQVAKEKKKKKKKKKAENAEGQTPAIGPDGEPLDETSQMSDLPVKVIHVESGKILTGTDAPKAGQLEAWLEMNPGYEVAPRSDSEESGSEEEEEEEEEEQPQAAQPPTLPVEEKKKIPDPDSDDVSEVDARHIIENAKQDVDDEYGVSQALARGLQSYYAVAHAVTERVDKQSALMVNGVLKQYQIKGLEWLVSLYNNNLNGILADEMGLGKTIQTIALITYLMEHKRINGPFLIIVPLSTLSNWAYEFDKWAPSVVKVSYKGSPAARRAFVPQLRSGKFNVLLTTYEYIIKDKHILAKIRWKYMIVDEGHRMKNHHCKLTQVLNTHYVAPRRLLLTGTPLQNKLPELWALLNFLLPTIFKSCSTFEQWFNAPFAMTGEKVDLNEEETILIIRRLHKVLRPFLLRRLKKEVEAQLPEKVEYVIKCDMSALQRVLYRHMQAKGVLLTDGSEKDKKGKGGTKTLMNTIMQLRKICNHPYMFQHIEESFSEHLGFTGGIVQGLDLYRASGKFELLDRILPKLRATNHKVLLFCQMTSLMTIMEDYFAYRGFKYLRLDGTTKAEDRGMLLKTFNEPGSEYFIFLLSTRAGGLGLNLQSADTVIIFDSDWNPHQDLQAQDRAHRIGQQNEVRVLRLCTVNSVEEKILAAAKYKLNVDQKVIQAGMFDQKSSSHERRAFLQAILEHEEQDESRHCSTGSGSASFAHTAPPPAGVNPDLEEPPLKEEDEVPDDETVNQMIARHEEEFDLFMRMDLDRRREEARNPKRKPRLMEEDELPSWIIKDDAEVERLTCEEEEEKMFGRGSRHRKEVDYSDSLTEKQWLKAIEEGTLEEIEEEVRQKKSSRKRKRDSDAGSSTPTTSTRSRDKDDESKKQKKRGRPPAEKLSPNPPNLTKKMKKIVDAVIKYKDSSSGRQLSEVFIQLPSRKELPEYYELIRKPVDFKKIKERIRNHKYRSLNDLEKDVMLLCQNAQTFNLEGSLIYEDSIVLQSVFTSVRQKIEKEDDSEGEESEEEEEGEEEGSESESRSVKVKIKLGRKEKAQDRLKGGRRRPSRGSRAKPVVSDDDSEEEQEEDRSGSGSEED
The assay can be described thus: SMARCA4 Western blot MV4-11 degradation. Particulars: for Dmax: MV4-11, MV4-11 cells, read-out: SMARCA4 MSD MV411 degradation 24 h: average Dmax %; for Dmax / DC50: 24 h; for DC50 / SMARCA4 MSD MV411 degradation 24 h: average Dmax %: MV4-11 cells; for DC50: read-out: SMARCA4 MSD MV411 degradation 24 h: Mean external-Abs DC50. Here is the method:
as §1, §2, §3

In assay [2] the target is T1, SMARCA2. The assay can be described thus: MSD SMARCA2 degradation in A549 cell line. Also noted: endogenous in cells. Particulars: for Dmax: A549, A549 cells; for Dmax / DC50: 24 h; for DC50 / SMARCA2 MSD A549 degradation 24 h: Average Dmax %: A549 cells; for DC50: read-out: SMARCA2 MSD A549 degradation 24 h: Average external-Abs DC50. Here is the method:
Example 53. MSD SMARCA2 Degradation in A549 Cell Line
Cells were seeded into 96-well plates (A549 cells: 2×10^4 cells/well/100 ul media) abd incubated overnight. The next day, 200 nl compound were added into the intermediate plate with Echo (Labcyte 550) from source plate containing a 3-fold serial dilution from top concentration of 1 mM. The culture medium was changed with 80 ul of fresh medium and 80 ul of 2× compound solution was added into the well to make a final concentration of 1000 nM, 333.3 nM, 111.1 nM, 37.04 nM, 12.35 nM, 4.115 nM, 1.372 nM, 0.457 nM, 0.152 nM and 0 nM (DMSO). The wells were mixed and then incubated for 24 hours. The media was aspirated from the cultures and 60 ul pre-chilled PIPA lysis buffer (Boston BioProducts BP-115D) with protease/phosphatase inhibitor (Roche 05892791001/Roche 04906837001) was added into the well to lyze the cells for 20 minutes at 4° C. The MSD plate (L15XA) was coated with 40 ul cell lysate and incubated at 4° C. overnight. The next day, the plate was washed three times with TBST (CST #9997S), 150 ul/well. The MSD plates was blocked with 150 ul blocking buffer per well and shaked for 1 hr at R^†, 600 rpm. The blocking buffer was 3% Blocker A (MSD, R93BA-4) in TBST. The MSD plate was washed three times with 150 ul/well of TBST and 25 ul/well of detection antibody (Rabbit anti-SMARCA2/BRM antibody, 100 μg/ml, ab223735) was added at final concentration of 1 ug/mi diluted in 1% o Blocking buffer and shaken for 1 hour at R^†, 600 rpm. The MSD plate was washed three times with 150 ul/well of TBST and 25 ul/well of SULFO-TAG anti-rabbit antibody (MSD, R32AB-1) was added at final concentration of 1 μg/ml diluted in […] Blocking buffer and shaken for 1 hour at R^†, 600 rpm. The MSD plate was washed three times with 150 ul/well of TBST and 150 ul/well of 2×MSD reading buffer diluted from 4× (MSD, R92TC-2) with water was added. Lastly, the MSD instrument was read.
The letter codes for SMARCA2 degradation potency (DC50) include: A (<100 nM), B (100-500 nM), C (501-1000 nM), and D (>1000 nM). The letter codes for the percentage of SMARCA2 degradation after 24 hours (Dmax % o) include: A (>90% o degradation), B (>70-90% o degradation), C (50-70% o degradation), and D (<50% degradation).

Take `Cc1ncsc1-c1ccc(CNC(=O)[C@@H]2C[C@@H](O)CN2C(=O)C(c2cc(N3CCC(N4CCC(c5cnc(N6C7CCC6CN(c6cc(-c8ccccc8O)nnc6N)C7)nc5)CC4)CC3)no2)C(C)C)cc1` (mixture of isomers) [I-47, (2S,4R)-1-(2-(3-(4-(2-(3-(3-amino-6-(2-hydroxyphenyl)pyridazin-4-yl)-3,8-diazabicyclo[3.2.1]octan-8-yl)pyrimidin-5-yl)-[1,4′-bipiperidin]-1′-yl)isoxazol-5-yl)-3-methylbutanoyl)-4-hydroxy-N-(4-(4-methylthiazol-5-yl)benzyl)pyrrolidine-2-carboxamide]: the Dmax on SMARCA2 [1], on SMARCA4 and on SMARCA2 [2] was greater than 90% each time. Also, the DC50 on SMARCA2 [1], on SMARCA4 and on SMARCA2 [2] was less than 100 nM each time.
As for `Cc1ncsc1-c1ccc([C@H](C)NC(=O)[C@@H]2C[C@@H](O)CN2C(=O)[C@@H](NC(=O)[C@H]2CC3(C2)C[C@H](N2CCC(c4cnc(N5C6CCC5CN(c5cc(-c7ccccc7O)nnc5N)C6)nc4)CC2)C3)C(C)(C)C)cc1` (single isomer, unassigned) [I-1], the Dmax is 70 to 90% at SMARCA2 [1], 70 to 90% at SMARCA4 and greater than 90% at SMARCA2 [2]. The DC50 on SMARCA2 [1] is less than 100 nM; at SMARCA4, less than 100 nM; on SMARCA2 [2], 100 to 500 nM.
`Cc1ncsc1-c1ccc([C@H](C)NC(=O)[C@@H]2C[C@@H](O)CN2C(=O)[C@@H](NC(=O)[C@H]2CC3(C2)C[C@H](N2CCC(c4cnc(N5C6CCC5CN(c5cc(-c7ccccc7O)nnc5N)C6)nc4)CC2)C3)C(C)(C)C)cc1` (single isomer, unassigned) [I-2]: at SMARCA2 [1], the “SMARCA2 MSD MV411 degradation 24 h: average Dmax %” value is “A (A (>90% degradation))” and the DC50 was less than 100 nM. At SMARCA4, the “SMARCA4 MSD MV411 degradation 24 h: average Dmax %” value was “B (B (>70-90% degradation))” and the DC50 is less than 100 nM. In addition, at SMARCA2 [2], the “SMARCA2 MSD A549 degradation 24 h: Average Dmax %” value is reported as “A (A (>90% o degradation))” and the DC50 is less than 100 nM.
As to `Cc1ncsc1-c1ccc(C2(NC(=O)[C@@H]3C[C@@H](O)CN3C(=O)[C@@H](NC(=O)[C@H]3CC4(C3)C[C@H](N3CCC(c5cnc(N6C7CCC6CN(c6cc(-c8ccccc8O)nnc6N)C7)nc5)CC3)C4)C(C)(C)C)CC2)cc1` (single isomer, unassigned) [I-3], the figures for the Dmax on SMARCA2 [1], at SMARCA4 and on SMARCA2 [2] were greater than 90%, 70 to 90% and greater than 90%, respectively. In addition, the DC50 at SMARCA2 [1], on SMARCA4 and at SMARCA2 [2] was less than 100 nM each time.
Take `Cc1ncsc1-c1ccc(C2(NC(=O)[C@@H]3C[C@@H](O)CN3C(=O)[C@@H](NC(=O)[C@H]3CC4(C3)C[C@H](N3CCC(c5cnc(N6C7CCC6CN(c6cc(-c8ccccc8O)nnc6N)C7)nc5)CC3)C4)C(C)(C)C)CC2)cc1` (single isomer, unassigned) [I-4]: at SMARCA2 [1], the “SMARCA2 MSD MV411 degradation 24 h: average Dmax %” value is recorded as “A (A (>90% degradation))” and the DC50 is less than 100 nM. On SMARCA4, the “SMARCA4 MSD MV411 degradation 24 h: average Dmax %” value was “A (A (>90% degradation))” and the DC50 was less than 100 nM. For the same molecule, on SMARCA2 [2], the “SMARCA2 MSD A549 degradation 24 h: Average Dmax %” value is reported as “A (A (>90% o degradation))” and the DC50 lay within 100 to 500 nM.
In the case of `Cc1ncsc1-c1ccc([C@H](C)NC(=O)[C@@H]2C[C@@H](O)CN2C(=O)[C@@H](NC(=O)[C@H]2CC3(C2)C[C@H](N2CCC(c4ccc(N5C6CCC5CN(c5cc(-c7ccccc7O)nnc5N)C6)cc4)CC2)C3)C(C)(C)C)cn1` (single isomer, unassigned) [I-5], at SMARCA2 [1], the Dmax was less than 50% and the DC50 was 100 to 500 nM. For the same molecule, at SMARCA4, the “SMARCA4 MSD MV411 degradation 24 h: average Dmax %” value is recorded as “D (D (<50% degradation))” and the DC50 is greater than 1000 nM. Further, on SMARCA2 [2], the Dmax is less than 50% and the DC50 was greater than 1000 nM.
On to `Cc1ncsc1-c1ccc([C@H](C)NC(=O)[C@@H]2C[C@@H](O)CN2C(=O)[C@@H](NC(=O)[C@H]2CC3(C2)C[C@H](N2CCC(c4ccc(N5C6CCC5CN(c5cc(-c7ccccc7O)nnc5N)C6)cc4)CC2)C3)C(C)(C)C)cn1` (single isomer, unassigned) [I-6], for which, on SMARCA2 [1], the “SMARCA2 MSD MV411 degradation 24 h: average Dmax %” value is “C (C (50-70% degradation))” and the DC50 lay in the range of 501 to 1000 nM. Moreover, on SMARCA4, the “SMARCA4 MSD MV411 degradation 24 h: average Dmax %” value was “A (A (>90% degradation))” and the DC50 was greater than 1000 nM. In addition, at SMARCA2 [2], the “SMARCA2 MSD A549 degradation 24 h: Average Dmax %” value is on record as “B (B (>70-90% o degradation))” and the DC50 was greater than 1000 nM.
Regarding `Cc1ncsc1-c1ccc(CNC(=O)[C@@H]2C[C@@H](O)CN2C(=O)[C@@H](NC(=O)[C@H]2CC3(C2)C[C@H](N2CCN(c4cnc(N5C6CCC5CN(c5cc(-c7ccccc7O)nnc5N)C6)nc4)CC2)C3)C(C)(C)C)cc1` (single isomer, unassigned) [I-8], the Dmax at SMARCA2 [1] was 70 to 90%; at SMARCA4, less than 50%; at SMARCA2 [2], 70 to 90%. Besides, the DC50 was less than 100 nM at SMARCA2 [1], greater than 1000 nM on SMARCA4 and less than 100 nM at SMARCA2 [2].
On to `Cc1ncsc1-c1ccc(CNC(=O)[C@@H]2C[C@H](O)CN2C(=O)[C@@H](NC(=O)[C@H]2CC3(C2)C[C@H](N2CCC(c4cnc(N5C6CCC5CN(c5cc(-c7ccccc7O)nnc5N)C6)nc4)CC2)C3)C(C)(C)C)cc1` (stereo partly drawn) [I-80, (2S,4S)-1-((2S)-2-(6-(4-(2-(3-(3-amino-6-(2-hydroxyphenyl)pyridazin-4-yl)-3,8-diazabicyc-lo[3.2.1]octan-8-yl)pyrimidin-5-yl)piperidin-1-yl)spiro[3.3]heptane-2-carboxamido)-3,3-dimethylbutanoyl)-4-hydroxy-N-(4-(4-methylthiazol-5-yl)benzyl)pyrrolidine-2-carbox-amide], for which the DC50 on SMARCA4 and on SMARCA2 [2] was greater than 1000 nM throughout.

By Dmax is commonly meant the largest share of the target that was removed. By DC50 is commonly meant the concentration at which degradation of the target reaches its halfway point.
